# Measurements from PubChem BioAssay AID2060888 (Molecular Pharmacology Branch, DTP, NCI, 2025).
# Test system: 695427-040-R-J1-PDC complex spheroid viability
# Experiment: Anticancer human tumor 695427-040-R-J1-PDC patient-derived colon adenocarcinoma cell line growth inhibition [RAS]
# Details: for IC50: curve of first compound; for viability, T/C: stronger effect = lower value
# Procedure, shortened: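 Tumour cells grown as complex spheroids with HUVEC endothelial cells and mesenchymal stem cells, treated with RAS pathway inhibitor combinations. Each agent spans half-log steps from near clinical Cmax, or 10 microM where Cmax is unknown.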
# [1] = second compound 0.000949 µM, first compound 0.0316 µM
# [2] = second compound 0.000949 µM, first compound 0.1 µM
# [3] = second compound 0.003 µM, first compound 0.0316 µM
# [4] = second compound 0.003 µM, first compound 0.1 µM
# [5] = second compound 0.00949 µM, first compound 0.0316 µM
# [6] = second compound 0.00949 µM, first compound 0.1 µM
# [7] = second compound 0.03 µM, first compound 0.0316 µM
# [8] = second compound 0.03 µM, first compound 0.1 µM
# [9] = second compound 0.0949 µM, first compound 0.0316 µM
# [10] = second compound 0.0949 µM, first compound 0.1 µM
# [11] = second compound 0.3 µM, first compound 0.0316 µM
# [12] = second compound 0.3 µM, first compound 0.1 µM
# 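Note: viability read after seven days of drug exposure.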
# 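Throughout, for viability, T/C: 100% = DMSO vehicle control viability.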
smiles,measurement,setting,value
CC(C)NCC(C(=O)N1CCN(c2ncnc3c2C(C)CC3O)CC1)c1ccc(Cl)cc1 (centres undefined) + CCn1c(-c2cc(N3CCN(C)CC3)cnc2C(C)OC)c2c3cc(ccc31)-c1csc(n1)CC(NC(=O)C1CC1C)C(=O)N1CCCC(N1)C(=O)OCC(C)(C)C2,IC50,second compound 0.000949 µM,> 10000 nM
same,IC50,second compound 0.003 µM,> 10000 nM
same,IC50,second compound 0.00949 µM,> 10000 nM
same,IC50,second compound 0.03 µM,4050 nM
same,IC50,second compound 0.0949 µM,< 31.6 nM
same,IC50,second compound 0.3 µM,< 31.6 nM
same,"viability, T/C",[1],84.9%
same,"viability, T/C",[2],98.1%
same,"viability, T/C","second compound 0.000949 µM, first compound 0.316 µM",78.2%
same,"viability, T/C","second compound 0.000949 µM, first compound 1 µM",89.4%
same,"viability, T/C","second compound 0.000949 µM, first compound 3.16 µM",60.6%
same,"viability, T/C","second compound 0.000949 µM, first compound 10 µM",54.8%
same,"viability, T/C",[3],107%
same,"viability, T/C",[4],85.5%
same,"viability, T/C","second compound 0.003 µM, first compound 0.316 µM",96.5%
same,"viability, T/C","second compound 0.003 µM, first compound 1 µM",73%
same,"viability, T/C","second compound 0.003 µM, first compound 3.16 µM",85.6%
same,"viability, T/C","second compound 0.003 µM, first compound 10 µM",59.2%
same,"viability, T/C",[5],74.4%
same,"viability, T/C",[6],81.3%
same,"viability, T/C","second compound 0.00949 µM, first compound 0.316 µM",65%
same,"viability, T/C","second compound 0.00949 µM, first compound 1 µM",59.1%
same,"viability, T/C","second compound 0.00949 µM, first compound 3.16 µM",85.3%
same,"viability, T/C","second compound 0.00949 µM, first compound 10 µM",54.1%
same,"viability, T/C",[7],51.4%
same,"viability, T/C",[8],54.6%
same,"viability, T/C","second compound 0.03 µM, first compound 0.316 µM",51.4%
same,"viability, T/C","second compound 0.03 µM, first compound 1 µM",52.5%
same,"viability, T/C","second compound 0.03 µM, first compound 3.16 µM",60.1%
same,"viability, T/C","second compound 0.03 µM, first compound 10 µM",35.1%
same,"viability, T/C",[9],36.4%
same,"viability, T/C",[10],45.1%
same,"viability, T/C","second compound 0.0949 µM, first compound 0.316 µM",39.2%
same,"viability, T/C","second compound 0.0949 µM, first compound 1 µM",36%
same,"viability, T/C","second compound 0.0949 µM, first compound 3.16 µM",41.9%
same,"viability, T/C","second compound 0.0949 µM, first compound 10 µM",24.6%
same,"viability, T/C",[11],36.9%
same,"viability, T/C",[12],28.7%
same,"viability, T/C","second compound 0.3 µM, first compound 0.316 µM",35.5%
same,"viability, T/C","second compound 0.3 µM, first compound 1 µM",30.8%
same,"viability, T/C","second compound 0.3 µM, first compound 3.16 µM",27.9%
same,"viability, T/C","second compound 0.3 µM, first compound 10 µM",15.5%
CC(C)n1nc(-c2ccc3oc(N)nc3c2)c2c(N)ncnc21 + CCn1c(-c2cc(N3CCN(C)CC3)cnc2C(C)OC)c2c3cc(ccc31)-c1csc(n1)CC(NC(=O)C1CC1C)C(=O)N1CCCC(N1)C(=O)OCC(C)(C)C2,IC50,second compound 0.000949 µM,71.9 nM
same,IC50,second compound 0.003 µM,> 100 nM
same,IC50,second compound 0.00949 µM,34.2 nM
same,IC50,second compound 0.03 µM,4.03 nM
same,IC50,second compound 0.0949 µM,< 0.316 nM
same,IC50,second compound 0.3 µM,< 0.316 nM
same,"viability, T/C","second compound 0.000949 µM, first compound 0.000316 µM",100%
same,"viability, T/C","second compound 0.000949 µM, first compound 0.001 µM",86.4%
same,"viability, T/C","second compound 0.000949 µM, first compound 0.00316 µM",80.3%
same,"viability, T/C","second compound 0.000949 µM, first compound 0.01 µM",81.2%
same,"viability, T/C",[1],68.6%
same,"viability, T/C",[2],42%
same,"viability, T/C","second compound 0.003 µM, first compound 0.000316 µM",98.5%
same,"viability, T/C","second compound 0.003 µM, first compound 0.001 µM",84.8%
same,"viability, T/C","second compound 0.003 µM, first compound 0.00316 µM",71.8%
same,"viability, T/C","second compound 0.003 µM, first compound 0.01 µM",68.1%
same,"viability, T/C",[3],66.5%
same,"viability, T/C",[4],51.1%
same,"viability, T/C","second compound 0.00949 µM, first compound 0.000316 µM",93.3%
same,"viability, T/C","second compound 0.00949 µM, first compound 0.001 µM",68.5%
same,"viability, T/C","second compound 0.00949 µM, first compound 0.00316 µM",70%
same,"viability, T/C","second compound 0.00949 µM, first compound 0.01 µM",59.1%
same,"viability, T/C",[5],46.4%
same,"viability, T/C",[6],46.8%
same,"viability, T/C","second compound 0.03 µM, first compound 0.000316 µM",74.3%
same,"viability, T/C","second compound 0.03 µM, first compound 0.001 µM",45.1%
same,"viability, T/C","second compound 0.03 µM, first compound 0.00316 µM",55.8%
same,"viability, T/C","second compound 0.03 µM, first compound 0.01 µM",48.6%
same,"viability, T/C",[7],39.2%
same,"viability, T/C",[8],28.7%
same,"viability, T/C","second compound 0.0949 µM, first compound 0.000316 µM",47.6%
same,"viability, T/C","second compound 0.0949 µM, first compound 0.001 µM",38.6%
same,"viability, T/C","second compound 0.0949 µM, first compound 0.00316 µM",35.4%
same,"viability, T/C","second compound 0.0949 µM, first compound 0.01 µM",32.8%
same,"viability, T/C",[9],30%
same,"viability, T/C",[10],21.3%
same,"viability, T/C","second compound 0.3 µM, first compound 0.000316 µM",41%
same,"viability, T/C","second compound 0.3 µM, first compound 0.001 µM",34.8%
same,"viability, T/C","second compound 0.3 µM, first compound 0.00316 µM",27.3%
same,"viability, T/C","second compound 0.3 µM, first compound 0.01 µM",28.2%
same,"viability, T/C",[11],22.6%
same,"viability, T/C",[12],15.7%
